Active and inactive are the calls of the source. No cut-off for these calls is given here.
Assays:
[1] = Drug metabolism in Wistar rat assessed as DCF level in blood at 10.5 mg/kg, po administered via gavage measured after 5 mins by LC-MS/MS analysis; format: ADME, organism-based; conditions: in vivo
[2] = Toxicity against Sprague-Dawley rat assessed as elevation of beneficial gut probiotics(Prevotellaceae and Erysipelotrichaceae) at 10.5 mg/kg, po administered via gavage for 7 days and measured at 2 hrs post-last drug dosage by Kruskal-Wallis H test; format: organism-based; conditions: in vivo, 168 h, time 7 day
[3] = Cardiotoxicity against Sprague-Dawley rat assessed as striated muscle recovery with reduced vacuolation in heart at 14.2 mg/kg, ip administered for 6 days by Hematoxylin-Eosin staining analysis; format: toxicity, organism-based; conditions: in vivo, 144 h, time 6 day
Rattus norvegicus [4] = experiment: Antiinflammatory activity against collagen-induced arthritis Wistar rat model assessed as increase in IL-10 level in serum at 33.7 umol/kg, po administered for 28 days via gavage by ELISA; format: functional, organism-based; conditions: dose 33.7 µmol/kg, time 28.0 day
[5] = Cardiotoxicity against Sprague-Dawley rat assessed as LDH level in serum at 14.2 mg/kg, ip administered for 6 days (reference value: 831.8 +/-23.1 U/L); format: toxicity, organism-based; conditions: in vivo, 144 h, time 6 day
[6] = Oral bioavailability in Wistar rat at 10.5 mg/kg; format: ADME, organism-based; conditions: in vivo
[7] = Cardiotoxicity against Sprague-Dawley rat assessed as cTnI level in serum at 14.2 mg/kg, ip administered for 6 days (reference value: 1.9 +/-0.2 ng/ml); format: toxicity, organism-based; conditions: in vivo, 144 h, time 6 day
[8] = Toxicity against collagen-induced arthritis Wistar rat model assessed as uric acid level in serum at 33.7 umol/kg, po administered for 28 days; format: organism-based; conditions: in vivo, 672 h, dose 33.7 µmol/kg, time 28 day
[9] = Toxicity against collagen-induced arthritis Wistar rat model assessed as creatinine level in serum at 33.7 umol/kg, po administered for 28 days; format: organism-based; conditions: in vivo, 672 h, dose 33.7 µmol/kg, time 28 day
Rattus norvegicus [10] = experiment: Antiinflammatory activity against collagen-induced arthritis Wistar rat model assessed as reduction in toe swelling at 33.7 umol/kg, po administered for 28 days via gavage; format: functional, organism-based; conditions: dose 33.7 µmol/kg, time 28.0 day
[11] = Toxicity against collagen-induced arthritis Wistar rat model assessed as glutathione level in liver at 33.7 umol/kg, po administered for 28 days; format: organism-based; conditions: in vivo, 672 h, dose 33.7 µmol/kg, time 28 day
[12] = Toxicity against Sprague-Dawley rat assessed as dysbiosis in gut microbiota at 10.5 mg/kg, po administered via gavage for 7 days and measured at 2 hrs post-last drug dosage by 16S rRNA amplicon sequencing based PCA analysis; format: organism-based; conditions: in vivo, 168 h, time 7 day
[13] = Drug metabolism in Wistar rat assessed as DCF level in blood at 10.5 mg/kg, po administered via gavage measured after 10 mins by LC-MS/MS analysis; format: ADME, organism-based; conditions: in vivo
[14] = Toxicity against collagen-induced arthritis Wistar rat model assessed as decrease in SOD activity in liver at 33.7 umol/kg, po administered for 28 days; format: organism-based; conditions: in vivo, 672 h, dose 33.7 µmol/kg, time 28 day
[15] = Cardiotoxicity against Sprague-Dawley rat assessed as myocardial fibrosis at 14.2 mg/kg, ip administered for 6 days by Masson staining analysis; format: toxicity, organism-based; conditions: in vivo, 144 h, time 6 day
[16] = target: T1, Prostaglandin G/H synthase 1 (Ovis aries, UniProt P05979); experiment: Inhibition of ovine COX1 assessed as reduction in PGF2alpha production using arachidonic acid as substrate preincubated with enzyme for 10 mins followed by substrate addition and measured after 2 mins by ELISA
T1 sequence (P05979 whole entry): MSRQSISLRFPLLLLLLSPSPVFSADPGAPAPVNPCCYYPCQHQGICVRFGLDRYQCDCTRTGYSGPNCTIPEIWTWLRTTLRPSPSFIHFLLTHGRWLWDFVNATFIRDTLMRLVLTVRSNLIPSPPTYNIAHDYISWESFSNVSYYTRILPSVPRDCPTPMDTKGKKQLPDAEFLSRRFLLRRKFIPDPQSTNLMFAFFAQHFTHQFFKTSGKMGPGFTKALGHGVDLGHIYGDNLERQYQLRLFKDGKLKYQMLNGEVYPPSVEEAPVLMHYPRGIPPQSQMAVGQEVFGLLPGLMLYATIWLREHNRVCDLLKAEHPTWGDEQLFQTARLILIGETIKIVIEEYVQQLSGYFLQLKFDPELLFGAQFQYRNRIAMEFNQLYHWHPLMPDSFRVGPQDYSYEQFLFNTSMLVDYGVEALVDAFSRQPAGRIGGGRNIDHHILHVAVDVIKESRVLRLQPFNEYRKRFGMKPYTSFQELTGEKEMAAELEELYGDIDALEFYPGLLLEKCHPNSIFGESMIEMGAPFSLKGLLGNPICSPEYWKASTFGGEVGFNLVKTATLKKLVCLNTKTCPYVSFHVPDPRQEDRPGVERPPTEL

[17] = Stability of the compound in PBS at 500 uM measured for 3 months at pH 7.4 at -20 degC by HPLC analysis; format: physicochemical; conditions: buffer, pH 7.4, 2190 h
Rattus norvegicus [18] = experiment: Antiinflammatory activity against collagen-induced arthritis Wistar rat model assessed as reduction in IL-1 beta level in serum at 33.7 umol/kg, po administered for 28 days via gavage by ELISA; format: functional, organism-based; conditions: dose 33.7 µmol/kg, time 28.0 day
[19] = Toxicity against collagen-induced arthritis Wistar rat model assessed as increase in body weight at 16.8 umol/kg, po administered for 28 days; format: organism-based; conditions: in vivo, 672 h, at 16.8 µmol/kg, time 28 day
[20] = Cardiotoxicity against Sprague-Dawley rat assessed as increase in Bcl-2 level in heart at 14.2 mg/kg, ip administered for 6 days by immunofluorescence staining analysis; format: toxicity, organism-based; conditions: in vivo, 144 h, time 6 day
[21] = Stability of the compound in rat plasma assessed as half life by LC-MS/MS analysis; format: ADME, cell-free
[22] = Cardiotoxicity against Sprague-Dawley rat assessed as MDA level in heart at 14.2 mg/kg, ip administered for 6 days; format: toxicity, organism-based; conditions: in vivo, 144 h, time 6 day
[23] = Toxicity against Sprague-Dawley rat assessed as apoptosis in intestine at 10.5 mg/kg, po administered via gavage for 7 days and measured at 2 hrs post-last drug dosage by TUNEL immunofluorescence staining; format: organism-based; conditions: in vivo, 168 h, time 7 day
[24] = Toxicity against Sprague-Dawley rat assessed as decrease in crypt proliferation at 10.5 mg/kg, po administered via gavage for 7 days and measured at 2 hrs post-last drug dosage by Ki67 immunohistochemistry; format: organism-based; conditions: in vivo, 168 h, time 7 day
[25] = Toxicity against collagen-induced arthritis Wistar rat model assessed as preserved mucosa integrity without gastrointestinal damage at 33.7 umol/kg, po administered for 28 days by Hematoxylin-Eosin staining based analysis; format: organism-based; conditions: in vivo, 672 h, dose 33.7 µmol/kg, time 28 day
[26] = Toxicity against C57BL/6J mouse assessed as ALT level in serum at 506 umol/kg, ip measured after 24 hrs; format: organism-based; conditions: in vivo, dose 506 µmol/kg
[27] = Toxicity against collagen-induced arthritis Wistar rat model assessed as gastric ulceration at 16.8 umol/kg, po administered for 28 days; format: organism-based; conditions: in vivo, 672 h, dose 16.8 µmol/kg, time 28 day
[28] = Toxicity against Sprague-Dawley rat assessed as potentially pathogenic bacteria (Clostridiaceae and Peptostreptococcaceae) level at 10.5 mg/kg, po administered via gavage for 7 days and measured at 2 hrs post-last drug dosage by Kruskal-Wallis H test; format: organism-based; conditions: in vivo, 168 h, time 7 day
[29] = Stability of the compound in PBS at 500 uM measured within 144 hrs at pH 7.4 at 37 degC by HPLC analysis; format: physicochemical; conditions: buffer, pH 7.4, 144 h
[30] = Toxicity against C57BL/6J mouse assessed as AST level in serum at 506 umol/kg, ip measured after 24 hrs; format: organism-based; conditions: in vivo, dose 506 µmol/kg
[31] = Toxicity against Sprague-Dawley rat assessed as diarrhea at 10.5 mg/kg, po administered via gavage for 7 days; format: organism-based; conditions: in vivo, 168 h, time 7 day
[32] = Toxicity against Sprague-Dawley rat assessed as preservation of integrity of jejunal vili without crypt damage and less glandular structure loss in colon at 10.5 mg/kg, po administered via gavage for 7 days and measured at 2 hrs post-last drug dosage by Hematoxylin-Eosin staining based analysis; format: organism-based; conditions: in vivo, 168 h, time 7 day
[33] = Cardiotoxicity against Sprague-Dawley rat assessed as decrease in cleaved caspase-3 level in heart at 14.2 mg/kg, ip administered for 6 days by immunofluorescence staining analysis; format: toxicity, organism-based; conditions: in vivo, 144 h, time 6 day
[34] = Cardiotoxicity against Sprague-Dawley rat assessed as SOD level in heart at 14.2 mg/kg, ip administered for 6 days; format: toxicity, organism-based; conditions: in vivo, 144 h, time 6 day
[35] = Toxicity against collagen-induced arthritis Wistar rat model assessed as increase in body weight at 33.7 umol/kg, po administered for 28 days; format: organism-based; conditions: in vivo, 672 h, at 33.7 µmol/kg, time 28 day
[36] = Toxicity against collagen-induced arthritis Wistar rat model assessed as decrease in CAT activity in kidney at 33.7 umol/kg, po administered for 28 days; format: organism-based; conditions: in vivo, 672 h, dose 33.7 µmol/kg, time 28 day
[37] = Toxicity against Sprague-Dawley rat assessed as valeric acid and caproic acid in feces at 10.5 mg/kg, po administered via gavage for 7 days and measured at 2 hrs post-last drug dosage; format: organism-based; conditions: in vivo, 168 h, time 7 day
[38] = Stability in Wistar rat assessed as parent drug level in blood at 10.5 mg/kg, po administered via gavage measured after 5 mins by LC-MS/MS analysis; format: ADME, organism-based; conditions: in vivo
[39] = Toxicity against collagen-induced arthritis Wistar rat model assessed as AST level in serum at 33.7 umol/kg, po administered for 28 days; format: organism-based; conditions: in vivo, 672 h, dose 33.7 µmol/kg, time 28 day

With `O=C([S-])Cc1ccccc1Nc1c(Cl)cccc1Cl.[Na+]` the Drug metabolism [1] was 942.7 ng/mL, the Activity [2] was “Non-toxic” and the Activity [3] was “Non-toxic”. The Activity (Rattus norvegicus [4]) was “Active”, the Activity [5] was 1165 U/L and the bioavailability [6] was 80%. For the same compound, the Activity [7] was 2.7 ng/mL, the Activity [8] was 123.9 µmol/L and the Activity [9] was 313.9 µmol/L. The Activity (Rattus norvegicus [10]) was “Active”, the Activity [11] was 1.2 µg/mg and the Activity [12] was “Non-toxic”. For the same compound, the Drug metabolism [13] was 9755 ng/mL, the Activity [14] was “Non-toxic” and the Activity [15] was “Non-toxic”. The IC50 [16] was 0.0359 µM, the Stability [17] was “Stable” and the Activity (Rattus norvegicus [18]) was “Active”. For the same compound, the Activity [19] was 8%, the Activity [20] was “Non-toxic” and the half-life [21] was 1.45 h. The Activity [22] was “Non-toxic”, the Activity [23] was “Non-toxic” and the Activity [24] was “Non-toxic”. The Activity [25] was “Non-toxic”, the Activity [26] was 45.9 U/L and the Activity [27] was “Non-toxic”. The Activity [28] was “Non-toxic”, the Stability [29] was “Stable” and the Activity [30] was 66.5 U/L. For the same compound, the Activity [31] was “Non-toxic”, the Activity [32] was “Non-toxic” and the Activity [33] was “Non-toxic”. For the same compound, the Activity [34] was “Non-toxic”, the Activity [35] was 8% and the Activity [36] was “Non-toxic”. For the same compound, the Activity [37] was “Non-toxic”, the Stability [38] was 2330 ng/mL and the Activity [39] was 50.2 U/L.
